# Patent US10508092B2, “Synthesis of novel analogs of diptoindonesin G, compounds formed thereby, and pharmaceutical compositions containing them” (Wisconsin Alumni Research Foundation, priority 2016, dated 2019)
# Where “and” joins values, the source holds several entries; their conditions need not be identical. Identical values can stand only once.
# What was measured:
# [1] = test system: estrogen receptor β (ERβ); experiment: Western blot of FLAG-ERβ levels in Hs578T-ERβLuc Dox-inducible cells; type: cell-based, human; details: Hs578T-ERβLuc Dox-inducible line, 10 μM, 5 days, Western blot (anti-FLAG)
# Protocol: FIGS. 2A, 2B, and 2C together depict the biological activity of the subject compounds on estrogen receptor β (ERβ) levels in human breast cancer cells.
# The biological activity of these four analogs were then compared with the parent compound Dip G following our previous protocol (Zhao et al., supra). See FIGS. 1A, 1B, 1C, 2A, 2B, and 2C. Cells were treated with each compound at 10 μM concentration in order to evaluate how well each modified the stability of ERα and ERβ.
# MCF7 cells were treated with Dip G and analogs for 24 hours before harvesting. Hs578T-tet-on-ERβ cells (ATCC HTB-126; American Type Culture Collection, Manassas, Va.) were treated with doxycycline for 24 hours to induce ERβ expression. Then the cells were treated with compounds for 5 days before harvesting. 15 μg of total cell lysates were resolved on SDS-PAGE and Western blot analyses were performed as previously described using ERα antibody (HC-20, Santa Cruz Biotechnology, Inc., Dallas, Tex.) and anti-FLAG antibody (F7425, Sigma-Aldrich Co., LLC, St. Louis, Mo.) for ERβ.^3
# [2] = patients, high dose administration of fulvestrant (500 mg); cited from earlier work
SMILES,melting point,ERβ stability [1],peak plasma concentration [2]
O=C1c2c(O)cc(O)cc2-c2c(-c3ccccc3)oc3cc(O)cc1c23 [Compound 14],> 260 °C,moderately stabilized,–
C[C@]12CC[C@@H]3c4ccc(O)cc4C[C@@H](CCCCCCCCC[S+]([O-])CCCC(F)(F)C(F)(F)F)[C@H]3[C@@H]1CC[C@@H]2O (stereo partly drawn) [fulvestrant],–,–,~20 ng/ml and ~30 nM
